Laboratory results as given in patent US20260007617A1, “METHOD FOR TREATING RENAL CELL CARCINOMA OR CANCER” (Lantern Pharma Inc., priority 2023, published 2026).

Key:
Type in all cases: cell-based
UO31 = test: cell viability IC50 over 72 hours, UO31 kidney cell line; settings: Homo sapiens, UO-31
Procedure: (§1) FIG. 4 details the sensitivity of various cell lines to LP-184, showing cell death over 72 hours. Sensitivity, gauged by IC50 data, reflects how effectively a substance can inhibit a particular biological or biochemical function. […] This IC50 value, indicating the concentration needed to reduce cell viability by 50%, is key to understanding the compound's efficacy and the temporal response of the cells to the substance. Such analyses are vital for new drug development and therapeutic approaches, offering important insights into how cells react to different compounds over time.
as §1, with “Sensitivity,” for “FIG. 4 details the sensitivity of various cell lines to LP-184, showing cell death over 72 hours. Sensitivity,”

X7860 = test: cell viability IC50 over 72 hours, X7860 kidney cell line
Procedure: as §1
as §1, with “Sensitivity,” for “FIG. 4 details the sensitivity of various cell lines to LP-184, showing cell death over 72 hours. Sensitivity,”

TK10 = test: cell viability IC50 over 72 hours, TK10 kidney cell line; settings: Homo sapiens, TK-10
Procedure: as §1
as §1, with “Sensitivity,” for “FIG. 4 details the sensitivity of various cell lines to LP-184, showing cell death over 72 hours. Sensitivity,”

CAK11 = test: cell viability IC50 over 72 hours, CAK11 kidney cell line
Procedure: as §1
as §1, with “Sensitivity,” for “FIG. 4 details the sensitivity of various cell lines to LP-184, showing cell death over 72 hours. Sensitivity,”

ACHN = test: cell viability IC50 over 72 hours, ACHN kidney cell line; settings: Homo sapiens
Procedure: as §1
as §1, with “Sensitivity,” for “FIG. 4 details the sensitivity of various cell lines to LP-184, showing cell death over 72 hours. Sensitivity,”

RXF393 = test: cell viability IC50 over 72 hours, RXF393 kidney cell line; settings: for IC50: Homo sapiens, RXF 393, RXF393 cell line, Kidney, 72 hours
Procedure: as §1
as §1, with “Sensitivity,” for “FIG. 4 details the sensitivity of various cell lines to LP-184, showing cell death over 72 hours. Sensitivity,”

A498 = test: cell viability IC50 over 72 hours, A498 kidney cell line; settings: for IC50: Homo sapiens, A498 cell line, Kidney, 72 hours
Procedure: as §1
as §1, with “Sensitivity,” for “FIG. 4 details the sensitivity of various cell lines to LP-184, showing cell death over 72 hours. Sensitivity,”

769P = test: sensitivity of renal cell line 769P to LP-184; settings: 769P cell line
Description: (§2) By contrast, the RPE1 cell lines acted as a negative control, showcasing a distinct reaction to the treatment.

SN12C = test: cell viability IC50 over 72 hours, SN12C kidney cell line; settings: Homo sapiens
Procedure: as §1
as §1, with “Sensitivity,” for “FIG. 4 details the sensitivity of various cell lines to LP-184, showing cell death over 72 hours. Sensitivity,”

786O = test: sensitivity of renal cell line 786O to LP-184; settings: 786O cell line
Description: as §2

Row | SMILES | IC50 (UO31) [nM] | IC50 (X7860) [nM] | IC50 (TK10) [nM] | IC50 (CAK11) [nM] | IC50 (ACHN) [nM] | IC50 (RXF393) [nM] | sensitivity of cell line (in words) (RXF393; RXF393 clear cell renal carcinoma cell line) | sensitivity of cell line (in words) (A498; A498 clear cell renal carcinoma cell line) | IC50 (A498) [nM] | sensitivity of cell line (in words) (769P) | IC50 (SN12C) [nM] | sensitivity of cell line (in words) (786O)
1 | CC1=C(CN(O)C(N)=O)C2=C(C)C3(CC3)[C@@](C)(O)C(=O)C2=C1 [LP-184, (−)-hydroxyureamethyl acylfulvene] | 178 | 331 | 314 | 282 | 222 | 152 | high sensitivity | high sensitivity | 179 | low sensitivity | 349 | low sensitivity
2 | CC1=C(CN(O)C(N)=O)C2=C(C)C3(CC3)[C@](C)(O)C(=O)C2=C1 [LP-284, (+)-hydroxyureamethyl acylfulvene] | 254 | 2240 | 2010 | 1910 | 1130 | 328 |  |  | 1350 |  | 2620 | 
